Measured values: publication PMC8568530, “Inhibition of Vascular Smooth Muscle and Cancer Cell Proliferation by New VEGFR Inhibitors and Their Immunomodulator Effect: Design, Synthesis, and Biological Evaluation” (Oxidative Medicine and Cellular Longevity, 2021)
pIC50: −log10 of the molar value.

Columns and labels:
[1] = system: MCF-7; assay: MTT antiproliferative assay, MCF-7; assay type: cell-based; conditions: Homo sapiens, MCF7, breast cancer MCF-7
Method: (§1) The in vitro antiproliferative activities of the newly synthesized compounds were evaluated against a panel of three human tumor cell lines, namely, breast cancer (MCF-7), hepatocellular carcinoma (HepG-2), and colorectal carcinoma (HCT-116) using the standard MTT method. The tested cell lines were selected depending on their VEGF overexpression. Sorafenib, the lead drug, was coassayed as a positive control.
(§2) The antiproliferative activity of the synthesized compounds was evaluated using MTT protocol as described (Supplementary data (available here)).

[2] = system: HepG-2; assay: MTT antiproliferative assay, HepG-2; assay type: cell-based; conditions: Homo sapiens, HepG2, hepatocellular carcinoma HepG-2
Method: as §1, §2

[3] = system: HCT-116; assay: MTT antiproliferative assay, HCT-116; assay type: cell-based; conditions: Homo sapiens, colorectal carcinoma HCT-116
Method: as §1, §2

[4] = system: WI-38 cell line (normal human lung fibroblasts); assay: MTT cytotoxicity against normal cells WI-38; assay type: cell-based; conditions: normal human lung fibroblasts WI-38
Method: The cytotoxicity values of the synthesized compounds against the WI-38 cell line (normal human lung fibroblasts) were also evaluated in vitro.
as §2

[5] = biological target: VEGFR-2 (Homo sapiens, UniProt P35968); assay: In vitro VEGFR-2 enzyme inhibition assay; assay type: biochemical; conditions: read-out: IC50 against VEGFR-2
[6] = system: caspase-3; assay: Active caspase-3 level in HepG-2 cells; assay type: cell-based, human; conditions: for Caspase 3 Conc.: HepG-2 cells treated with compound; for Caspase 3 Fold: HepG-2 cells, versus control
From the text: (1) Effects on the Levels of Active Caspase-3. A significant mechanism by which anticancer agents can affect cancer cells is apoptosis. Apoptosis is a process of automated cell death. The apoptosis mechanism is typically mediated by a group of proteases called caspases. Caspase-3 is activated in every mammalian cell type provoking the cell to die, considered one of the apoptosis marks.
(1) Effects on the Levels of Active Caspase-3. […] (Supplementary data).

[7] = system: BAX; assay: BAX level in HepG-2 cells; assay type: cell-based, human; conditions: for BAX Conc.: HepG-2 cells treated with compound; for BAX Fold: HepG-2 cells, versus control
From the text: (§3) (2) Effects on Bcl-2 Family Proteins. The Bcl-2 family proteins are vital regulators of apoptosis cell death. Members of this family include the proapoptotic factor Bax which promotes cell death and the prosurvival (antiapoptotic) Bcl-2 which suppresses cell death. […] Results are expressed in Table 3.
(§4) (2) Effects on Bcl-2 Family Proteins. […] (Supplementary data).

[8] = system: Bcl-2; assay: Bcl-2 level in HepG-2 cells; assay type: cell-based, human; conditions: for Bcl-2 Conc.: HepG-2 cells treated with compound; for Bcl-2 Fold: HepG-2 cells, versus control
From the text: as §3, §4

[9] = system: TNF-α; assay: TNF-α in HepG-2 supernatant (ELISA); assay type: cell-based, human
From the text: (1) Estimation of Human Tumor Necrosis Factor Alpha (TNF-α) in HepG-2 Supernatant. […] Celecoxib, a potent inhibitor of TNF-α-induced cytokine expressions, was used as a positive control. […] Among the tested compounds, compound 7a caused a remarkably significant reduction in TNF-α levels (87%) in comparison to celecoxib (86%).
The levels of TNF-α in cell culture supernatants were estimated by the ELISA technique according to the reported procedure.

Chain of VEGFR-2 (P35968 20-1356): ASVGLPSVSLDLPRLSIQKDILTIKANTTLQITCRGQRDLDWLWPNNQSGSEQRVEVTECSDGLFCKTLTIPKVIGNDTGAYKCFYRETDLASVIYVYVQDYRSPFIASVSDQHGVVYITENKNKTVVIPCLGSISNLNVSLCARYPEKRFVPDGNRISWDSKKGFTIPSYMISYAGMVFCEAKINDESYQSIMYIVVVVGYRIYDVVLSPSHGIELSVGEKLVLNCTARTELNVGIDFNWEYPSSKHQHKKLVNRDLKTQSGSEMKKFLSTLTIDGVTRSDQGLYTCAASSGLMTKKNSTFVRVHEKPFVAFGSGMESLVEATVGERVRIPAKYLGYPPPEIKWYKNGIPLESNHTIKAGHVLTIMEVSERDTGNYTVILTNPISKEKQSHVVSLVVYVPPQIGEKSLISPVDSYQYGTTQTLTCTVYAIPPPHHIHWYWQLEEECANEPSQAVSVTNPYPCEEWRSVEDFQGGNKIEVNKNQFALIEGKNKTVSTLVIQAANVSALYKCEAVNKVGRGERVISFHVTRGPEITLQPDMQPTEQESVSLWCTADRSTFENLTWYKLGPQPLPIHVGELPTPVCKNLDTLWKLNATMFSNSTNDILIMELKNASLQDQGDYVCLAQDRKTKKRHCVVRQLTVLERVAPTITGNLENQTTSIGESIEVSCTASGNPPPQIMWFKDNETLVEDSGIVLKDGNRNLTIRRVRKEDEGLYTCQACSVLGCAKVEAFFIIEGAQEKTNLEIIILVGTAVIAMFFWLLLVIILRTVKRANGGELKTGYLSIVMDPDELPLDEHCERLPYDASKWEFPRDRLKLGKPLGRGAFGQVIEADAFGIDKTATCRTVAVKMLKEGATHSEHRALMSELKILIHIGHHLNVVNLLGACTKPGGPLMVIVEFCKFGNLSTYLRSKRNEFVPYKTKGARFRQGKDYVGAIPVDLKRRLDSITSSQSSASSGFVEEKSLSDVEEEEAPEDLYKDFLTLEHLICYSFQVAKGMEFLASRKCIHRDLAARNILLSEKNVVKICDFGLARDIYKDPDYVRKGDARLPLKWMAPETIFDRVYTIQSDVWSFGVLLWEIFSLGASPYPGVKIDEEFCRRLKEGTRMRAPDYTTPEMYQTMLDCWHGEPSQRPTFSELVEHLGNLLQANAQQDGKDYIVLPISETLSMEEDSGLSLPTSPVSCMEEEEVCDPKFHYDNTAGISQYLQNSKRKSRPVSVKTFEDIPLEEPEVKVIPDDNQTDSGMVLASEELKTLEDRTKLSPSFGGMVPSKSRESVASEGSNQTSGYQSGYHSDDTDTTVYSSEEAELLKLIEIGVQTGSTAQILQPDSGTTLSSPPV

Structure (SMILES) | pIC50 [1] | pIC50 [3] | pIC50 [5] | melting point [°C] | pIC50 [2] | pIC50 [4] | Caspase 3 Conc. [6] [pg/mL] | Caspase 3 Fold [6] [fold] | BAX Conc. [7] [pg/mL] | BAX Fold [7] [fold] | Bcl-2 Conc. [8] [pg/mL] | Bcl-2 Fold [8] [fold] | TNF-α % inhibition [9] [%]
O=C(Nc1ccc(C(=O)NC2CCCCC2)cc1)c1cccnc1 [Compound 5, N-(4-(Cyclohexylcarbamoyl)phenyl)nicotinamide] | 5.33 | 5.80 | 5.61 | – | 5.48 | 4.21 | 345.5 | 6.72 | 232.7 | 10.78 | 1.35 | 0.25 | 85
O=C(NCc1ccccc1)c1ccc(NC(=O)c2cccnc2)cc1 [Compound 6, N-(4-(Benzylcarbamoyl)phenyl)nicotinamide] | 4.74 | 4.79 | – | 229 to 232 | 4.81 | 3.93 | – | – | – | – | – | – | –
COc1ccc(NC(=O)c2ccc(NC(=O)c3cccnc3)cc2)cc1 [Compound 7b, N-(4-((4-Methoxyphenyl)carbamoyl)phenyl)nicotinamide] | 5.90 | 5.60 | 5.46 | – | 5.67 | 4.09 | 397.61 | – | 257.5 | 11.93 | 1.92 | 0.36 | 72
COc1ccccc1NC(=O)c1ccc(NC(=O)c2cccnc2)cc1 [Compound 7c, N-(4-((2-Methoxyphenyl)carbamoyl)phenyl)nicotinamide] | 4.93 | 4.81 | – | 185 to 187 | 4.71 | 3.86 | – | – | – | – | – | – | –
O=C(Nc1ccccc1)c1ccc(NC(=O)c2cccnc2)cc1 [Compound 7d, N-(4-(Phenylcarbamoyl)phenyl)nicotinamide] | 4.64 | 4.50 | – | 232 to 235 | 4.54 | 3.84 | – | – | – | – | – | – | –
O=C(Nc1ccc(Cl)cc1)c1ccc(NC(=O)c2cccnc2)cc1 [Compound 7e, N-(4-((4-Chlorophenyl)carbamoyl)phenyl)nicotinamide] | 4.87 | 4.75 | – | 272 to 274 | 4.65 | 3.85 | – | – | – | – | – | – | –
O=C(Nc1ccc(C(=O)Nc2ccc(Cl)cc2Cl)cc1)c1cccnc1 [Compound 7g, N-(4-((2,4-Dichlorophenyl)carbamoyl)phenyl)nicotinamide] | 4.38 | 4.50 | – | 189 to 192 | 4.58 | 3.88 | – | – | – | – | – | – | –
O=C(Nc1ccc(C(=O)Nc2ccccc2[N+](=O)[O-])cc1)c1cccnc1 [Compound 7i, N-(4-((2-Nitrophenyl)carbamoyl)phenyl)nicotinamide] | 4.79 | 4.74 | – | 198 to 201 | 4.82 | 3.99 | – | – | – | – | – | – | –
O=C(Nc1ccc(F)cc1)c1ccc(NC(=O)c2cccnc2)cc1 [Compound 7l, N-(4-((4-Fluorophenyl)carbamoyl)phenyl)nicotinamide] | 5.46 | 5.56 | 5.42 | – | 5.58 | 4.17 | 340.42 | 6.62 | 226.9 | 10.51 | 2.11 | 0.39 | 74
O=C(NNC(=O)C(F)(F)F)c1ccc(NC(=O)c2cccnc2)cc1 [Compound 10, N-(4-(2-(2,2,2-Trifluoroacetyl)hydrazine-1-carbonyl)phenyl)nicotinamide] | 5.45 | 5.26 | 5.11 | – | 5.50 | 4.11 | 334.57 | 6.51 | 231.6 | 10.73 | 2.72 | 0.51 | 40
CNC(=O)c1cc(Oc2ccc(NC(=O)Nc3ccc(Cl)c(C(F)(F)F)c3)cc2)ccn1 [Sorafenib, reference compound] | 5.36 | 5.28 | – | – | 5.42 | – | – | – | – | – | – | – | –

Now from value to compound, other results behind:

pIC50 [1] | pIC50 [3] | pIC50 [5] | melting point [°C] | Structure (SMILES) | pIC50 [2] | pIC50 [4] | Caspase 3 Conc. [6] [pg/mL] | Caspase 3 Fold [6] [fold] | BAX Conc. [7] [pg/mL] | BAX Fold [7] [fold] | Bcl-2 Conc. [8] [pg/mL] | Bcl-2 Fold [8] [fold] | TNF-α % inhibition [9] [%]
4.91 | 4.77 | – | 263 to 265 | O=C(N/N=C/c1ccc(F)cc1)c1ccc(NC(=O)c2cccnc2)cc1 [Compound 11a, (E)-N-(4-(2-(4-Fluorobenzylidene)hydrazine-1-carbonyl)phenyl)-nicotinamide] | 4.81 | 4.07 | – | – | – | – | – | – | –
4.81 | 4.87 | – | 260 to 262 | O=C(N/N=C/c1ccccc1)c1ccc(NC(=O)c2cccnc2)cc1 [Compound 11b, (E)-N-(4-(2-Benzylidenehydrazine-1-carbonyl)phenyl)-nicotinamide] | 4.75 | 4.14 | – | – | – | – | – | – | –
5.38 | 5.71 | 5.56 | – | COc1ccc(/C=N/NC(=O)c2ccc(NC(=O)c3cccnc3)cc2)cc1 [Compound 11d, (E)-N-(4-(2-(4-Methoxybenzylidene)hydrazine-1-carbonyl)phenyl)-nicotinamide] | 5.65 | 4.30 | 391.23 | – | 237.9 | 11.02 | 1.72 | 0.32 | 81
4.74 | 4.84 | – | 283 to 285 | O=C(N/N=C/c1c(Cl)cccc1Cl)c1ccc(NC(=O)c2cccnc2)cc1 [Compound 11e, (E)-N-(4-(2-(2,6-Dichlorobenzylidene)hydrazine-1-carbonyl)phenyl)-nicotinamide] | 4.62 | 4.10 | – | – | – | – | – | – | –
4.70 | 4.46 | – | 256 to 259 | O=C(N/N=C/c1ccc(O)cc1)c1ccc(NC(=O)c2cccnc2)cc1 [Compound 11h, (E)-N-(4-(2-(4-Hydroxybenzylidene)hydrazine-1-carbonyl)phenyl)-nicotinamide] | 4.51 | 3.99 | – | – | – | – | – | – | –
5.24 | 5.29 | 5.28 | – | O=C(CSc1nnc(-c2cccnc2)o1)Nc1ccc(Cl)cc1 [Compound 18a, N-(4-Chlorophenyl)-2-((5-(pyridin-3-yl)-1,3,4-oxadiazol-2-yl)thio)acetamide] | 5.08 | 3.91 | 267.64 | 5.20 | 113.5 | 5.26 | 2.63 | 0.49 | 45
4.71 | 4.66 | – | 167 to 169 | O=C(CSc1nnc(-c2cccnc2)o1)NCc1ccccc1 [Compound 18c, N-Benzyl-2-((5-(pyridin-3-yl)-1,3,4-oxadiazol-2-yl)thio)acetamide] | 5.07 | 4.04 | – | – | – | – | – | – | –
